This passage reports TGI and GI50 results from PubChem BioAssay (NCI).

Among the test systems are A549 NSCLC; CAKI-1 renal; RPMI-8226 leukemia; SF-295 CNS; SK-MEL-5 melanoma; SN12C renal; SNB-75 CNS; TK-10 renal; UACC-62 melanoma.
Assay in all cases: NCI tumour cell line growth inhibition, 48 h

Each structure is given as a SMILES string.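 48-hour exposure; five concentrations; linearly interpolated endpoints. Here, GI50 denotes the concentration required for 50% inhibition of growth. TGI is the concentration that stops growth completely.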

`COc1ccccc1NC(=O)CC(=O)N1N=C(C)C(N=Nc2ccc(S(N)(=O)=O)cc2)C1=O` (centres undefined): the TGI with A549 NSCLC, in the test on CAKI-1 renal, with RPMI-8226 leukemia, in the test on SF-295 CNS, in the test on SK-MEL-5 melanoma and in the test on SN12C renal was greater than 100 µM each time. Also, the TGI with SNB-75 CNS, in the test with TK-10 renal and with UACC-62 melanoma was greater than 100 µM in each case.
In the case of `CCCC[C@H](NC(=O)[C@H]1CCCN1C)C(=O)N(C)[C@H](C[C@@H](OC(C)=O)c1nc(C(=O)N[C@@H](Cc2ccccc2)C[C@H](C)C(=O)OCC)cs1)C(C)C`, the GI50 with A549 NSCLC was 0.0501 µM; in the test with RPMI-8226 leukemia, 0.00399 µM; with SF-295 CNS, 0.0139 µM; in the test on SK-MEL-5 melanoma, less than 0.00333 µM; in the test on SN12C renal, 0.0316 µM; in the test with SNB-75 CNS, 0.0152 µM. Besides, the GI50 in the test on TK-10 renal was 6.88 µM; in the test with UACC-62 melanoma, 0.00489 µM. In addition, the TGI in the test with A549 NSCLC is greater than 33.3 µM; with RPMI-8226 leukemia, 4.84 µM; in the test on SF-295 CNS, 4.13 µM; in the test with SK-MEL-5 melanoma, 0.063 µM; with SN12C renal, 8.41 µM; in the test with SNB-75 CNS it was 8.92 µM. Also, the TGI in the test with TK-10 renal and in the test with UACC-62 melanoma was greater than 33.3 µM throughout.
As to `Cc1ccncc1.[O]=[Ge].[O]=[Ge].[O]=[Ge].[O]=[Ge].[O]=[Ge].[O]=[Ge][OH].[O]=[Ge][OH]`, the GI50 with A549 NSCLC, with CAKI-1 renal, in the test on RPMI-8226 leukemia, in the test with SF-295 CNS, with SK-MEL-5 melanoma and with SN12C renal was greater than 100 µM throughout. Further, the GI50 in the test on SNB-75 CNS, with TK-10 renal and in the test with UACC-62 melanoma was greater than 100 µM in each case. Moreover, the TGI with A549 NSCLC, in the test with CAKI-1 renal, with RPMI-8226 leukemia, in the test on SF-295 CNS, in the test on SK-MEL-5 melanoma and with SN12C renal was greater than 100 µM in each case. Also, the TGI in the test with SNB-75 CNS, in the test on TK-10 renal and in the test with UACC-62 melanoma was greater than 100 µM in each case.
For the compound `C[N+](C)(C)CC(=O)N/N=C(/Cc1nc2c3c(ccc2[nH]c1=O)C(=O)c1ccccc1C3=O)C(=O)Nc1ccc(Cl)c(Cl)c1`, the TGI is greater than 100 µM in the test on A549 NSCLC; 87 µM in the test with CAKI-1 renal; greater than 100 µM with RPMI-8226 leukemia; greater than 100 µM with SF-295 CNS; greater than 100 µM in the test on SK-MEL-5 melanoma; greater than 100 µM in the test with SN12C renal. Besides, the TGI in the test with TK-10 renal and with UACC-62 melanoma was greater than 100 µM each time.
As to `CCOC(=O)C1=C(C)N(Cc2ccccc2)C(C)=C(C(=O)OCC)C1c1ccccc1O`, the TGI in the test with A549 NSCLC is greater than 100 µM; in the test with CAKI-1 renal it was greater than 100 µM; with SF-295 CNS it was greater than 100 µM; with SK-MEL-5 melanoma it was 30.3 µM; in the test on SN12C renal it was greater than 100 µM; with SNB-75 CNS, greater than 100 µM. The TGI in the test with TK-10 renal is greater than 100 µM; with UACC-62 melanoma it was 50.2 µM.
As for `Cc1cc(N(CCC#N)S(=O)(=O)c2ccccc2)ccc1/C=C1N=C(/C=C/c2ccccc2)OC\1=O`, the TGI with A549 NSCLC, with CAKI-1 renal, in the test with RPMI-8226 leukemia, in the test on SF-295 CNS, in the test with SK-MEL-5 melanoma and in the test with SN12C renal was greater than 100 µM each time. Further, the TGI in the test with SNB-75 CNS, with TK-10 renal and in the test with UACC-62 melanoma was greater than 100 µM each time.
As for `CCCCCCCCCCCCOC(=S)NCCCC`, the TGI in the test with RPMI-8226 leukemia was 34.2 µM; in the test on SF-295 CNS it was greater than 100 µM; in the test with SN12C renal, 45.2 µM; in the test with SNB-75 CNS, 95.1 µM; in the test with TK-10 renal it was greater than 100 µM; in the test on UACC-62 melanoma, 40.6 µM.
For the compound `CCCc1[nH]nc(CCC(=O)N(Cc2ccccc2)Cc2ccccc2)c1CC`, the TGI in the test on A549 NSCLC, with CAKI-1 renal, with RPMI-8226 leukemia, in the test with SF-295 CNS, in the test on SK-MEL-5 melanoma and in the test on SN12C renal was greater than 100 µM in each case. Besides, the TGI with SNB-75 CNS, with TK-10 renal and with UACC-62 melanoma was greater than 100 µM in each case.
As for `COCCN1C2=CCCCC2=Nc2c1nc(N)[nH]c2=O`, the TGI in the test with A549 NSCLC, in the test on CAKI-1 renal, in the test with RPMI-8226 leukemia, in the test on SF-295 CNS, in the test on SK-MEL-5 melanoma and in the test with SN12C renal was greater than 100 µM in each case. Besides, the TGI in the test on SNB-75 CNS, in the test on TK-10 renal and in the test on UACC-62 melanoma was greater than 100 µM in each case.
Take `c1cc(-c2cn3ccsc3n2)ccn1`: the TGI with A549 NSCLC was greater than 100 µM; with CAKI-1 renal, greater than 100 µM; in the test on RPMI-8226 leukemia it was greater than 81.4 µM; in the test with SF-295 CNS it was greater than 100 µM; in the test with SK-MEL-5 melanoma, greater than 100 µM; in the test on SN12C renal, greater than 100 µM. The TGI in the test with SNB-75 CNS, in the test on TK-10 renal and in the test on UACC-62 melanoma was greater than 100 µM each time.
In the case of `Cc1ccc(C(=O)O/N=C2/CCC/C2=C\c2ccccc2)cc1`, the TGI with A549 NSCLC, in the test on CAKI-1 renal, in the test on RPMI-8226 leukemia, with SF-295 CNS, in the test on SK-MEL-5 melanoma and in the test on SN12C renal was greater than 100 µM each time. The TGI in the test with SNB-75 CNS, in the test on TK-10 renal and in the test with UACC-62 melanoma was greater than 100 µM in each case.
For the compound `N#CC(C(=O)/C(=N/NC(=O)c1ccccc1O)C(C#N)c1ccc(Cl)cc1)c1ccc(Cl)cc1` (centres undefined), the TGI stood at 72.8 µM with A549 NSCLC; 53 µM in the test with RPMI-8226 leukemia; 29.9 µM in the test with SF-295 CNS; 26.4 µM with SN12C renal; 31.3 µM in the test on TK-10 renal.
On to `NC(=S)N/N=C(/CC(=O)c1ccccc1)C(=O)Nc1ccc(Cl)c(Cl)c1`, for which the TGI in the test with A549 NSCLC, in the test on CAKI-1 renal, with RPMI-8226 leukemia, in the test with SF-295 CNS, with SK-MEL-5 melanoma and in the test on SN12C renal was greater than 100 µM throughout. Also, the TGI with SNB-75 CNS, in the test on TK-10 renal and in the test on UACC-62 melanoma was greater than 100 µM throughout.
